Laboratory results: patent US20250230147A1, “LACTAMS AS CBL-B INHIBITORS” (Genentech, Inc., priority 2021, published 2025)
Where a name gives a salt, the structure may show the parent alone.

Key:
c-Cbl = c-Cbl (Homo sapiens (Human), UniProt P22681); assay: C-Cbl LCK Ub TR-FRET assay (c-cbl Lck HTRF); assay type: biochemical; settings: for (fold-selectivity): C-cbl Lck HTRF IC50 relative to Cbl-b Lck HTRF IC50
Summary of the method: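 Detection reagents added, brief spin, 20 min RT. IC50 fit normalized to no-LCK (low) and DMSO (high) controls.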

Cbl-b = Cbl-b (Homo sapiens (Human), UniProt Q13191); assay: Cbl-b LCK Ub TR-FRET assay (Cbl-b Lck HTRF); assay type: biochemical
Summary of the method: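 Biotin-Cbl-b preincubated with compound (10-point 3-fold series) 60 min, then His-LCK with 1 mM ATP (2× mixture) added for 90 min at room temperature. Ubiquitination detected by TR-FRET using HA-ubiquitin/UBE2D2 adduct, anti-HA-D2 and streptavidin-Eu; IC50 normalised to no-LCK and DMSO controls.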

Sequence of c-Cbl (P22681 47-435): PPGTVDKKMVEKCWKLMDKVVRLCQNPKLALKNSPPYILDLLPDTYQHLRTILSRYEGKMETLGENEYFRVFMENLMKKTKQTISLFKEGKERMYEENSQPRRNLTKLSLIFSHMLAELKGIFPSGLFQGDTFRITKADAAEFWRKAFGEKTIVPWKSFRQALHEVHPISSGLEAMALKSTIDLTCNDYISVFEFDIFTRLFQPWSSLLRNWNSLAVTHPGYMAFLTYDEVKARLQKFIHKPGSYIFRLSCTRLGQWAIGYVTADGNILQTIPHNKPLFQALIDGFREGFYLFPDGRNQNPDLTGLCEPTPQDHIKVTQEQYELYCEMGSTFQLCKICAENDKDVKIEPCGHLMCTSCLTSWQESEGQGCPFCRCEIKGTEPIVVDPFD
Sequence of Cbl-b (Q13191 40-426): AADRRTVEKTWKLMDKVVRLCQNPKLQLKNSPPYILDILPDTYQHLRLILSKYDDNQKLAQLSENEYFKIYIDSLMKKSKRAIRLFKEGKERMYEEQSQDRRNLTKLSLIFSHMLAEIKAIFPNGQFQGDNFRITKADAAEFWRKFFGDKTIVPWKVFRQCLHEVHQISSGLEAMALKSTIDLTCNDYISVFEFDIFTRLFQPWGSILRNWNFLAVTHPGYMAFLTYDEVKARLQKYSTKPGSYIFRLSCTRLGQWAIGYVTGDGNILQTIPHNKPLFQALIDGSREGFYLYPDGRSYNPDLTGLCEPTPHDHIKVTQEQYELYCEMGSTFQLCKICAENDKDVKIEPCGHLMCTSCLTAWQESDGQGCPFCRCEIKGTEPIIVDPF

| IC50 (c-Cbl) | IC50 (Cbl-b) | (fold-selectivity) (c-Cbl) | SMILES |
| --- | --- | --- | --- |
| 0.01 µM | 0.012 µM | (0.81x) | Cn1cnnc1CC1(c2cccc(N3Cc4c(cc(CNC56CC(C5)C6)cc4C(F)(F)F)C3=O)c2)CC(F)(F)C1 [Compound 356, 6-((bicyclo[1.1.1]pentan-1-ylamino)methyl)-2-(3-(3,3-difluoro-1-((4-methyl-4H-1,2,4-triazol-3-yl)methyl)cyclobutyl)phenyl)-4-(trifluoromethyl)isoindolin-1-one] |
| 0.0053 µM | 0.011 µM | (0.71x) | CCOc1cc(C2(Cc3nncn3C)CCC2)cc(N2Cc3c(cc(CNC4(C)CCC4)cc3C(F)(F)F)C2=O)n1 [Compound 359, 2-(6-ethoxy-4-(1-((4-methyl-4H-1,2,4-triazol-3-yl)methyl)cyclobutyl)pyridin-2-yl)-6-(((1-methylcyclobutyl)amino)methyl)-4-(trifluoromethyl)isoindolin-1-one] |
| 0.017 µM | 0.02 µM | (0.86x) | Cn1cnnc1CC1(c2cc(OCc3ccccc3)nc(N3Cc4c(cc(CNC5(C)CCC5)cc4C(F)(F)F)C3=O)c2)CCC1 [Compound 360, 2-(6-(benzyloxy)-4-(1-((4-methyl-4H-1,2,4-triazol-3-yl)methyl)cyclobutyl)pyridin-2-yl)-6-(((1-methylcyclobutyl)amino)methyl)-4-(trifluoromethyl)isoindolin-1-one] |
| 0.0096 µM | 0.013 µM | (0.76x) | CCc1cc(C2(Cc3nncn3C)CCC2)cc(N2Cc3c(cc(CNC4(C)CCC4)cc3C(F)(F)F)C2=O)n1 [Compound 361, 2-(6-ethyl-4-(1-((4-methyl-4H-1,2,4-triazol-3-yl)methyl)cyclobutyl)pyridin-2-yl)-6-(((1-methylcyclobutyl)amino)methyl)-4-(trifluoromethyl)isoindolin-1-one] |
| 0.0096 µM | 0.013 µM | (0.75x) | Cn1cnnc1CC1(c2cccc(N3Cc4c(cc(CNCC(C)(C)C)cc4C(F)(F)F)C3=O)c2)CC(F)(F)C1 [Compound 363, 2-(3-(3,3-difluoro-1-((4-methyl-4H-1,2,4-triazol-3-yl)methyl)cyclobutyl)phenyl)-6-((neopentylamino)methyl)-4-(trifluoromethyl)isoindolin-1-one] |
| 0.0097 µM | 0.015 µM | (0.63x) | Cn1cnnc1CC1(c2cccc(N3Cc4c(cc(CNC5CCCC5)cc4C(F)(F)F)C3=O)c2)CC(F)(F)C1 [Compound 364, 6-((cyclopentylamino)methyl)-2-(3-(3,3-difluoro-1-((4-methyl-4H-1,2,4-triazol-3-yl)methyl)cyclobutyl)phenyl)-4-(trifluoromethyl)isoindolin-1-one] |
| 0.0067 µM | 0.012 µM | (0.57x) | COc1cc(C2(Cc3nncn3C)CCC2)cc(N2Cc3c(cc(CN4CCN(C)C[C@@H]4C(C)C)cc3C(F)(F)F)C2=O)n1 [Compound 365, (S)-6-((2-isopropyl-4-methylpiperazin-1-yl)methyl)-2-(6-methoxy-4-(1-((4-methyl-4H-1,2,4-triazol-3-yl)methyl)cyclobutyl)pyridin-2-yl)-4-(trifluoromethyl)isoindolin-1-one] |
| 0.027 µM | 0.026 µM | (1.0x) | Cn1cnnc1CC1(c2cccc(N3Cc4c(cc(CNC5CC6(COC6)C5)cc4C(F)(F)F)C3=O)c2)CC(F)(F)C1 [Compound 366, 6-((2-oxaspiro[3.3]heptan-6-ylamino)methyl)-2-(3-(3,3-difluoro-1-((4-methyl-4H-1,2,4-triazol-3-yl)methyl)cyclobutyl)phenyl)-4-(trifluoromethyl)isoindolin-1-one] |
| 0.029 µM | 0.03 µM | (0.96x) | COCC1(NCc2cc3c(c(C(F)(F)F)c2)CN(c2cccc(C4(Cc5nncn5C)CC(F)(F)C4)c2)C3=O)CC1 [Compound 367, 2-(3-(3,3-difluoro-1-((4-methyl-4H-1,2,4-triazol-3-yl)methyl)cyclobutyl)phenyl)-6-(((1-(methoxymethyl)cyclopropyl)amino)methyl)-4-(trifluoromethyl)isoindolin-1-one] |
| 0.014 µM | 0.02 µM | (0.72x) | Cn1cnnc1CC1(c2cccc(N3Cc4c(cc(CNCC5COC5)cc4C(F)(F)F)C3=O)c2)CC(F)(F)C1 [Compound 368, 2-(3-(3,3-difluoro-1-((4-methyl-4H-1,2,4-triazol-3-yl)methyl)cyclobutyl)phenyl)-6-(((oxetan-3-ylmethyl)amino)methyl)-4-(trifluoromethyl)isoindolin-1-one] |
| 0.063 µM | 0.062 µM | (1.0x) | CC[C@@H](C)NCc1cc2c(c(C(F)(F)F)c1)CN(c1cccc(C3(Cc4nncn4C)CC(F)(F)C3)c1)C2=O [Compound 370, (R)-6-((sec-butylamino)methyl)-2-(3-(3,3-difluoro-1-((4-methyl-4H-1,2,4-triazol-3-yl)methyl)cyclobutyl)phenyl)-4-(trifluoromethyl)isoindolin-1-one] |
| 0.014 µM | 0.015 µM | (0.94x) | CC[C@H](C)NCc1cc2c(c(C(F)(F)F)c1)CN(c1cccc(C3(Cc4nncn4C)CC(F)(F)C3)c1)C2=O [Compound 371, (S)-6-((sec-butylamino)methyl)-2-(3-(3,3-difluoro-1-((4-methyl-4H-1,2,4-triazol-3-yl)methyl)cyclobutyl)phenyl)-4-(trifluoromethyl)isoindolin-1-one] |
| 0.034 µM | 0.028 µM | (1.2x) | Cn1cnnc1CC1(c2cccc(N3Cc4c(cc(CNC(C)(C)CF)cc4C(F)(F)F)C3=O)c2)CC(F)(F)C1 [Compound 372, 2-(3-(3,3-difluoro-1-((4-methyl-4H-1,2,4-triazol-3-yl)methyl)cyclobutyl)phenyl)-6-(((1-fluoro-2-methylpropan-2-yl)amino)methyl)-4-(trifluoromethyl)isoindolin-1-one] |
| 0.025 µM | 0.02 µM | (1.3x) | COC(C)(C)CNCc1cc2c(c(C(F)(F)F)c1)CN(c1cccc(C3(Cc4nncn4C)CC(F)(F)C3)c1)C2=O [Compound 373, 2-(3-(3,3-difluoro-1-((4-methy-4H-1,2,4-triazol-3-yl)methyl)cyclobutyl)phenyl)-6-(((2-methoxy-2-methylpropyl)amino)methyl)-4-(trifluoromethyl)isoindolin-1-one] |
| 0.099 µM | 0.1 µM | (1.0x) | CN1CCN(Cc2cc3c(c(C(F)(F)F)c2)CN(c2cccc(C4(Cc5nncn5C)CC(F)(F)C4)c2)C3=O)C(C(F)(F)F)C1 (stereo not shown) [Compound 374, 2-(3-(3,3-difluoro-1-((4-methyl-4H-1,2,4-triazol-3-yl)methyl)cyclobutyl)phenyl)-6-((4-methyl-2-(trifluoromethyl)piperazin-1-yl)methyl)-4-(trifluoromethyl)isoindolin-1-one] |
| 0.014 µM | 0.022 µM | (0.65x) | CCOc1cc(C2(Cc3nncn3C)COC2)cc(N2Cc3c(cc(CN4CCC(F)(F)[C@H](C)C4)cc3C(F)(F)F)C2=O)n1 [Compound 375, (R)-6-((4,4-difluoro-3-methylpiperidin-1-yl)methyl)-2-(6-ethoxy-4-(3-((4-methyl-4H-1,2,4-triazol-3-yl)methyl)oxetan-3-yl)pyridin-2-yl)-4-(trifluoromethyl)isoindolin-1-one] |

| SMILES | IC50 (c-Cbl) | IC50 (Cbl-b) | (fold-selectivity) (c-Cbl) |
| --- | --- | --- | --- |
| Cn1cnnc1CC1(c2cccc(N3Cc4c(cc(CNC56CC(C)(C5)C6)cc4C(F)(F)F)C3=O)c2)CC(F)(F)C1 [Compound 354, 2-(3-(3,3-difluoro-1-((4-methyl-4H-1,2,4-triazol-3-yl)methyl)cyclobutyl)phenyl)-6-(((3-methylbicyclo[1.1.1]pentan-1-yl)amino)methyl)-4-(trifluoromethyl)isoindolin-1-one formate] | 0.007 µM | 0.013 µM | – |
| Cn1cnnc1CC1(c2cccc(N3Cc4c(cc(CNC5(C)CCC5(C)C)cc4C(F)(F)F)C3=O)c2)CC(F)(F)C1 (stereo not shown) [Compound 355, 2-(3-(3,3-difluoro-1-((4-methyl-4H-1,2,4-triazol-3-yl)methyl)cyclobutyl)phenyl)-4-(trifluoromethyl)-6-(((1,2,2-trimethylcyclobutyl)amino)methyl) isoindin-1-one formate] | 0.0091 µM | 0.014 µM | – |
| Cn1cnnc1CC1(c2cccc(N3Cc4c(cc(CNCC5COC(C)(C)O5)cc4C(F)(F)F)C3=O)c2)CC(F)(F)C1 (stereo not shown) [Compound 357, 2-(3-(3,3-difluoro-1-((4-methyl-4H-1,2,4-triazol-3-yl)methyl)cyclobutyl)phenyl)-6-((((2,2-dimethyl-1,3-dioxolan-4-yl)methyl)amino)methyl)-4-(trifluoromethyl)isoindolin-1-one formate] | 0.041 µM | 0.038 µM | – |
| Cn1cnnc1CC1(c2cccc(N3Cc4c(cc(CNCC5CCOC5)cc4C(F)(F)F)C3=O)c2)CC(F)(F)C1 (stereo not shown) [Compound 358, 2-(3-(3,3-difluoro-1-((4-methyl-4H-1,2,4-triazol-3-yl)methyl)cyclobutyl)phenyl)-6-((((tetrahydrofuran-3-yl)methyl)amino)methyl)-4-(trifluoromethyl)isoindolin-1-one formate] | 0.015 µM | 0.016 µM | – |
| CCC1(NCc2cc3c(c(C(F)(F)F)c2)CN(c2cccc(C4(Cc5nncn5C)CC(F)(F)C4)c2)C3=O)CCC1 [Compound 369, 2-(3-(3,3-difluoro-1-((4-methyl-4H-1,2,4-triazol-3-yl)methyl)cyclobutyl)phenyl)-6-(((1-ethylcyclobutyl)amino)methyl)-4-(trifluoromethyl)isoindolin-1-one formate] | 0.015 µM | 0.017 µM | – |
